Consider 16 compounds from US20240262795A1, “PYRAZINE COMPOUNDS AS INHIBITORS OF FLT3” (Biomea Fusion, Inc., priority 2021, published 2024).

A value given as a limit tells only on which side of the number the result lay.

The IC50 is the concentration that inhibits the measured activity by half.

Assay type in all cases: cell-based, human
For test [1], the system named is K-562. In words: Proliferation inhibition, CellTiter-Glo, K-562. Conditions: Homo sapiens, K562, 96 h; K-562 cells, IC50 (4 days), CellTiter-Glo; read-out: K-562 IC50. The method, boiled down: (§1)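 About 10,000 cells per well in RPMI-1640 with 10% FBS. Compounds added 2 h after seeding at eight concentrations in duplicate (0.2% DMSO as 100% proliferation), then incubated ~96 h at 37° C, 5% CO2. ATP measured by CellTiter-Glo luminescence; IC50 from four-parameter logistic fit.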

Test [2] deals with MV-4-11. The test can be described thus: Proliferation inhibition, CellTiter-Glo, MV-4-11. Conditions: Homo sapiens, MV4-11, 96 h; MV-4:11 cells, IC50 (4 days), CellTiter-Glo; read-out: MV-4:11 IC50. The essentials:
as §1
A general note: ATP-based viability assays read luminescence as a measure of living cells.

Test [3] concerns MOLM-13. In words: Proliferation inhibition, CellTiter-Glo, MOLM-13. The note with it: Homo sapiens, 96 h; MOLM-13 cells, IC50 (4 days), CellTiter-Glo; read-out: MOLM-13 IC50. The method, boiled down:
as §1

For the compound `CCc1nc(C(N)=O)c(Nc2cc(CCNC(=O)[C@H](C)N(C)C(=O)/C=C/CN(C)C)ccn2)nc1C1CC1` [Compound 304, 5-cyclopropyl-3-[[4-[2-[[(2S)-2-[[(E)-4-(dimethylamino)but-2-enoyl]-methyl-amino]propanoyl]amino]ethyl]-2-pyridyl]amino]-6-ethyl-pyrazine-2-carboxamide], the IC50 in test [1] was more than 500 nM; in test [2], 100 to 500 nM; in test [3], 100 to 500 nM.

As to `C=CC(=O)N(C)CC(=O)NCCc1cccc(Nc2nc(N(C)C(C)C)c(C)nc2C(N)=O)c1` [Compound 309, 5-[isopropyl(methyl)amino]-6-methyl-3-[3-[2-[[2-[methyl(prop-2-enoyl)amino]acetyl]amino]ethyl]anilino]pyrazine-2-carboxamide], the figures for the 50% inhibitory concentration (IC50) in test [1], in test [2] and in test [3] were more than 500 nM, 1 to 10 nM and 100 to 500 nM, respectively.

Take `CCc1nc(C(N)=O)c(Nc2cccc(C[C@@H](C)NC(=O)CN(C)C(=O)/C=C/CN(C)C)c2)nc1C` [Compound 311, 3-[3-[(2R)-2-[[2-[[(E)-4-(dimethylamino)but-2-enoyl]-methyl-amino]acetyl]amino]propyl]anilino]-6-ethyl-5-methyl-pyrazine-2-carboxamide]: the IC50 in test [1] is more than 500 nM; in test [2] it was 10 to 100 nM; in test [3], 100 to 500 nM.

With `CCc1nc(C(N)=O)c(Nc2cccc(C[C@H](C)NC(=O)CN(C)C(=O)/C=C/CN(C)C)c2)nc1C` [Compound 312, 3-[3-[(2S)-2-[[2-[[(E)-4-(dimethylamino)but-2-enoyl]-methyl-amino]acetyl]amino]propyl]anilino]-6-ethyl-5-methyl-pyrazine-2-carboxamide], the IC50 in test [1] is more than 500 nM; in test [2] it was 10 to 100 nM; in test [3], 100 to 500 nM.

Consider `CCc1nc(C(N)=O)c(Nc2cccc(CCNC(=O)[C@H](C)N(C)C(=O)/C=C/CN(C)C)n2)nc1C1CC1` [Compound 313, 5-cyclopropyl-3-[[6-[2-[[(2S)-2-[[(E)-4-(dimethylamino)but-2-enoyl]-methyl-amino]propanoyl]amino]ethyl]-2-pyridyl]amino]-6-ethyl-pyrazine-2-carboxamide], for which the figures for the IC50 in test [1], in test [2] and in test [3] were more than 500 nM, 10 to 100 nM and 100 to 500 nM, respectively.

In the case of `CCc1nc(C(N)=O)c(Nc2cccc(C[C@@H](C)NC(=O)[C@H](C)N(C)C(=O)/C=C/CN(C)C)c2)nc1C` [Compound 314, 3-[3-[(2R)-2-[[(2S)-2-[[(E)-4-(dimethylamino)but-2-enoyl]-methyl-amino]propanoyl]amino]propyl]anilino]-6-ethyl-5-methyl-pyrazine-2-carboxamide], the half-inhibitory concentration (IC50) was more than 500 nM in test [1], 10 to 100 nM in test [2] and 100 to 500 nM in test [3].

In the case of `CCc1cc(C(N)=O)c(Nc2cccc(CCNC(=O)[C@H](C)N(C)C(=O)/C=C/CN(C)C)c2)nc1C1CC1` [Compound 316, 6-cyclopropyl-2-[3-[2-[[(2S)-2-[[(E)-4-(dimethylamino)but-2-enoyl]-methyl-amino]propanoyl]amino]ethyl]anilino]-5-ethyl-pyridine-3-carboxamide], the IC50 in test [1] is more than 500 nM; in test [2], 10 to 100 nM; in test [3], 100 to 500 nM.

On to `CCc1nc(C(N)=O)c(Nc2cccc(C[C@H](C)NC(=O)[C@H](C)N(C)C(=O)/C=C/CN(C)C)c2)nc1C` [Compound 317, 3-[3-[(2S)-2-[[(2S)-2-[[(E)-4-(dimethylamino)but-2-enoyl]-methyl-amino]propanoyl]amino]propyl]anilino]-6-ethyl-5-methyl-pyrazine-2-carboxamide], for which the IC50 was more than 500 nM in test [1], 1 to 10 nM in test [2] and 10 to 100 nM in test [3].

Regarding `CCc1nc(C(N)=O)c(Nc2cccc(CCNC(=O)[C@H](C)N(C)C(=O)CCCN(C)C)c2)nc1N(C)C(C)C` [Compound 318, 3-[3-[2-[[(2S)-2-[4-(dimethylamino)butanoyl-methyl-amino]propanoyl]amino]ethyl]anilino]-6-ethyl-5-[isopropyl(methyl)amino]pyrazine-2-carboxamide], the values for the IC50 in test [1], in test [2] and in test [3] were more than 500 nM, 1 to 10 nM and 10 to 100 nM, respectively.

As for `Cc1cc(C(N)=O)c(Nc2cccc(CCNC(=O)[C@H](C)N(C)C(=O)/C=C/CN(C)C)c2)nc1C1CC1` [Compound 319, 6-cyclopropyl-2-[3-[2-[[(2S)-2-[[(E)-4-(dimethylamino)but-2-enoyl]-methyl-amino]propanoyl]amino]ethyl]anilino]-5-methyl-pyridine-3-carboxamide], the IC50 is more than 500 nM in test [1], 10 to 100 nM in test [2] and 10 to 100 nM in test [3].

Regarding `CCc1cc(C(N)=O)c(Nc2cncc(CCNC(=O)[C@H](C)N(C)C(=O)/C=C/CN(C)C)c2)nc1C1CC1` [Compound 320, 6-cyclopropyl-2-[[5-[2-[[(2S)-2-[[(E)-4-(dimethylamino)but-2-enoyl]-methyl-amino]propanoyl]amino]ethyl]-3-pyridyl]amino]-5-ethyl-pyridine-3-carboxamide], the figures for the half-inhibitory concentration (IC50) in test [1], in test [2] and in test [3] were more than 500 nM, 10 to 100 nM and 100 to 500 nM, respectively.

In the case of `CCc1cc(C(N)=O)c(Nc2cccc(CCNC(=O)[C@H](C)N(C)C(=O)/C=C/CN(C)C)c2)nc1N(C)C` [Compound 322, (S,E)-6-(dimethylamino)-2-((3-(2-(2-(4-(dimethylamino)-N-methylbut-2-enamido)propanamido)ethyl)phenyl)amino)-5-ethylnicotinamide], the IC50 in test [1] was more than 500 nM; in test [2], 10 to 100 nM; in test [3], 100 to 500 nM.

Take `CCc1nc(C(N)=O)c(Nc2cccc([C@H](C)CNC(=O)CN(C)C(=O)/C=C/CN(C)C)c2)nc1C` [Compound 324, (S,E)-3-((3-(1-(2-(4-(dimethylamino)-N-methylbut-2-enamido)acetamido)propan-2-yl)phenyl)amino)-6-ethyl-5-methylpyrazine-2-carboxamide]: the IC50 in test [1] is more than 500 nM; in test [2] it was 10 to 100 nM; in test [3] it was 100 to 500 nM.

As to `CCc1nc(C(N)=O)c(Nc2cccc([C@H](C)CNC(=O)[C@H](C)N(C)C(=O)/C=C/CN(C)C)c2)nc1C` [Compound 325, 3-[3-[(1S)-2-[[(2S)-2-[[(E)-4-(dimethylamino)but-2-enoyl]-methyl-amino]propanoyl]amino]-1-methyl-ethyl]anilino]-6-ethyl-5-methyl-pyrazine-2-carboxamide], the IC50 in test [1] was more than 500 nM; in test [2], 100 to 500 nM; in test [3], 100 to 500 nM.

Turning to `CCc1nc(C(N)=O)c(Nc2cccc([C@@H](C)CNC(=O)[C@H](C)N(C)C(=O)/C=C/CN(C)C)c2)nc1C` [Compound 326, 3-((3-((R)-1-((S)-2-((E)-4-(dimethylamino)-N-methylbut-2-enamido)propanamido)propan-2-yl)phenyl)amino)-6-ethyl-5-methylpyrazine-2-carboxamide], the concentration for half-maximal inhibition (IC50) in test [1], in test [2] and in test [3] was more than 500 nM each time.

Regarding `C=CC(=O)N(C)CC(=O)NC[C@H](C)c1cccc(Nc2nc(CC(C)C)c(CC)nc2C(N)=O)c1` [Compound 512, (R)-6-ethyl-5-isobutyl-3-((3-(1-(2-(N-methylacrylamido)acetamido)propan-2-yl)phenyl)amino) pyrazine-2-carboxamide], the values for the IC50 in test [1], in test [2] and in test [3] were more than 500 nM, 10 to 100 nM and more than 500 nM, respectively.
